Data as given in patent US7049331B2, “1,2,4-thiadiazole derivatives as melanocortin receptor modulators” (Ortho-McNeil Pharmaceutical, Inc., priority 2001, dated 2006).

How the values were obtained:
Cortical Cells = assay: Neurite Cell Outgrowth Assay, cortical cells; assay type: cell-based; details: Rattus norvegicus; 50 nM; percent change over the vehicle response; NA = no change/not active
Description: (§1) Dissociated hippocampal and cortical cell cultures were established from embryonic day 18 rat fetuses as described by Mattson, M. P., Barger, S. W., Begley, J, and Mark, R. J., Methods Cell Biol., 1994, 46:[…]. Briefly, fetuses were removed via cesarean section from pregnant moms (Sprague-Dawley) and anesthetized with halothane according to the AVMA Panel on Euthanasia. Pups were decapitated and the brains were removed and placed in HEPES-buffered Hank's Balanced Salt solution (HBSS; Gibco). The hippocampi and cortices were dissected out and pooled according to tissue-type. Tissue was trypsinized for 15 min (1 mg/ml trypsin-HBSS; Worthington), rinsed with fresh HBSS, incubated in trypsin inhibitor (1 mg/ml; Sigma) for 5 min, rinsed again with fresh HBSS and then triturated in 1 ml fresh HBSS with a fire-polished glass pipette. Dissociated cells were seeded at 30,000 cells/well onto poly-D-lysine coated 96-well plates (Collaborative BioScience). Each well contained 100 μl of Eagle's Minimal Essential Media (MEM; Gibco) supplemented with 26 mM NaHCO3 (Sigma), 56 mM glucose (Sigma), 15 mM KCl (Sigma), 1 mM sodium pyruvate (Sigma), 1.1 mM L-glutamine (Sigma), 10% (v/v) heat-inactivated fetal bovine serum (Hyclone), and 0.001% gentamicin sulfate (Sigma) (pH 7.4). Cells were allowed to attach for 24 h in a humidified 37° C. 5% CO2 incubator before experimental treatment. The culture media was aspirated and exchanged with fresh media every 3 days.
(§2) Twenty-four hours after plating, cultures were treated with vehicle (PBS+0.1% BSA), alpha-melanocyte stimulating hormone (α-MSH) or test compound (diluted in DPBS). Each treatment condition was run in quadruplicate. On the third day in culture, the media was aspirated off and replaced with fresh media and test compound. At one week in culture, the cells were fixed with 10% phosphate-buffered formalin for 15 min, then rinsed with DPBS (Sigma) and placed in blocking serum for 30 min (horse serum; 1:50 dilution in DPBS; Vector Labs). The cultures were rinsed again with DPBS and then incubated in primary antibody for 2 hr (microtubule-associated protein-2 (MAP-2) is a selective marker for dendritic processes; anti-mouse monoclonal (Chemicon); 1:1000 dilution of MAP-2 in antibody diluent (Zymed)). Negative control wells were incubated in antibody diluent alone. Background signal was determined by blank wells (cell-free) incubated with or without antibody. Cultures were rinsed again with DPBS and then placed in fluorescein for 1 hr (FITC; anti-mouse IgG; rat adsorbed; 1:50 dilution in DPBS; Vector Labs). Cultures were rinsed a final time with DPBS and the plates were then read on a Cytofluor 4000 fluorescence plate reader. Neurite outgrowth was expressed as percent change from control (vehicle).
(§3) The data are expressed as percent change over the vehicle response. All compounds were screened at 50 nM. The abbreviation NA indicates no change/not active; the abbreviation ND indicates a compound not tested/response not determined.

[1] = target: T1, melanocortin MC-4 receptor (Homo sapiens, UniProt P32245); assay: Melanocortin MC-4 Receptor Binding Assay (SPA)
T1 construct: purchased Receptor Biology Inc
T1 sequence (P32245 whole entry): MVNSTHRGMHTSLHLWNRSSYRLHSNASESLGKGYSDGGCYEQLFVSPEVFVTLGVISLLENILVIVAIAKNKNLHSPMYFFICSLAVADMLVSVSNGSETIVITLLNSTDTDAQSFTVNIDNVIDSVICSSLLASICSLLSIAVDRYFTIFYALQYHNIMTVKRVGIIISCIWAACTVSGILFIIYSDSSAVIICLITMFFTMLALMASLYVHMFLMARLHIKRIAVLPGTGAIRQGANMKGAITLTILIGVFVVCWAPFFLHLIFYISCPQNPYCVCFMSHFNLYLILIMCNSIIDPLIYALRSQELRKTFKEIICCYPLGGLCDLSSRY
Experimental: Melanocortin MC-4 Receptor Binding Assay Melanocortin [MC-4]-membrane [purchased from Receptor Biology Inc] was coupled to wheat germ agglutinin coated polyvinyl toluene-Scintillation Proximity Assay beads [purchased from Amersham Pharmacia Inc.] for 30 min at 25° C. Into each well of a 96-well Opti plate [purchased from Packard, Calif.], 2.5 μg of membrane and 0.25 mg of beads were mixed in a volume of 100 μL media. […] Test compounds (1.5 μL) at 1 mM in 30% DMSO-50 mM HEPES, pH 7.4 buffer was added to separate wells on the plate. Radioactive ligand ^125I-NDP-melanocyte stimulating hormone [NEN, 2000Ci/mmol] was added to each well (48.5 μL per well, 40 pM final concentration). The plate was then sealed and let stand for 16 hr at 25° C. NDP-Melanocyte stimulating hormone peptide and α-melanocyte stimulating hormone peptide [purchased from Palomar Research Inc, 1 μM] were used as reference inhibitor compounds to define non-specific binding (N). Total binding (T) was defined using 30% DMSO-50 mM HEPES, pH 7.4 buffer. Bound radioactivity for each well (Y), measured at counts per minute (cpm) was measured in a TopCount [Packard, Calif.]. Percent inhibition was calculated as: […] The procedures described above for the melanocortin MC-4 receptor were repeated for the melanocortin MC-3 receptor. Following the procedures described, representative compounds of the present invention were tested for binding in the MC-4 and/or MC-3 assay, as listed in Table 4.

Hippocampal Cells = assay: Neurite Cell Outgrowth Assay, hippocampal cells; assay type: cell-based; details: Rattus norvegicus; 50 nM; percent change over the vehicle response; NA = no change/not active
Description: as §1, §2, §3

SMILES	activation at 0.05 µM (Cortical Cells) [%]	IC50 [1] [nM]	activation at 0.05 µM (Hippocampal Cells) [%]	IC50 MC-4 (nM) (SPA) [1]
c1ccc(Nc2nc(-c3ccccc3)[n+](-c3ccccc3)s2)cc1 [Compound 22]	30	124	–	–
COc1ccc(Nc2nc(-c3ccccc3)[n+](-c3ccccc3)s2)cc1 [Compound 23]	20	124	10	–
COc1ccccc1Nc1nc(-c2ccccc2)[n+](-c2ccccc2)s1 [Compound 24]	16	76	10	–
Cc1ccc(Nc2nc(-c3ccccc3)[n+](-c3ccccc3)s2)cc1 [Compound 25]	23	57	–	–
COc1ccccc1-[n+]1sc(Nc2ccccc2)nc1-c1ccccc1 [Compound 28]	25	68	–	–
COc1ccccc1Nc1nc(-c2ccccc2)[n+](-c2ccccc2OC)s1 [Compound 30]	–	103	–	–
COc1ccccc1-[n+]1sc(Nc2ccc(Cl)cc2)nc1-c1ccccc1 [Compound 33]	21	91	–	–
COc1ccc(-[n+]2sc(Nc3ccccc3)nc2-c2ccccc2)cc1 [Compound 35]	28	100	–	–
COc1ccc(Nc2nc(-c3ccccc3)[n+](-c3ccc(OC)cc3)s2)cc1 [Compound 36]	16	79	–	–
COc1ccc(-[n+]2sc(Nc3ccccc3OC)nc2-c2ccccc2)cc1 [Compound 37]	26	72	–	–
COc1ccc(-[n+]2sc(Nc3ccc(C)cc3)nc2-c2ccccc2)cc1 [Compound 38]	–	159	–	–
COc1ccc(-[n+]2sc(Nc3ccccc3C)nc2-c2ccccc2)cc1 [Compound 39]	–	146	–	–
COc1ccc(-[n+]2sc(Nc3ccc(Cl)cc3)nc2-c2ccccc2)cc1 [Compound 40]	–	133	26	–
COc1ccc(-[n+]2sc(Nc3ccccc3Cl)nc2-c2ccccc2)cc1 [Compound 41]	5	483	36	–
Clc1ccccc1-[n+]1sc(Nc2ccccc2)nc1-c1ccccc1 [Compound 42]	–	482	26	–
COc1ccc(Nc2nc(-c3ccccc3)[n+](-c3ccccc3Cl)s2)cc1 [Compound 43]	37	237	30	–
COc1ccccc1Nc1nc(-c2ccccc2)[n+](-c2ccccc2Cl)s1 [Compound 44]	19	89	43	–
Cc1ccc(Nc2nc(-c3ccccc3)[n+](-c3ccccc3Cl)s2)cc1 [Compound 45]	25	246	46	–
Cc1ccccc1Nc1nc(-c2ccccc2)[n+](-c2ccccc2Cl)s1 [Compound 46]	19	368	40	–
Clc1ccc(Nc2nc(-c3ccccc3)[n+](-c3ccccc3Cl)s2)cc1 [Compound 47]	13	874	20	–
Clc1ccccc1Nc1nc(-c2ccccc2)[n+](-c2ccccc2Cl)s1 [Compound 48]	19	444	–	–
COc1ccc(CNc2nc(-c3ccccc3)[n+](-c3ccccc3)s2)cc1 [Compound 51]	28	1000	74	–
COc1ccccc1CNc1nc(-c2ccccc2)[n+](-c2ccccc2)s1 [Compound 52]	–	1000	65	–
Cc1ccc(CNc2nc(-c3ccccc3)[n+](-c3ccccc3)s2)cc1 [Compound 53]	–	1000	67	–

SMILES	activation at 0.05 µM (Cortical Cells) [%]	IC50 [1] [nM]	activation at 0.05 µM (Hippocampal Cells) [%]	IC50 MC-4 (nM) (SPA) [1]
Cc1ccccc1CNc1nc(-c2ccccc2)[n+](-c2ccccc2)s1 [Compound 54]	–	800	45	–
Clc1ccc(CNc2nc(-c3ccccc3)[n+](-c3ccccc3)s2)cc1 [Compound 55]	–	800	19	–
Clc1ccccc1CNc1nc(-c2ccccc2)[n+](-c2ccccc2)s1 [Compound 56]	–	3000	33	–
COc1ccc(-c2nc(Nc3ccccc3)s[n+]2-c2ccc(OC)cc2)cc1 [Compound 57]	–	–	9	inactive
COc1ccc(Nc2nc(-c3ccc(OC)cc3)[n+](-c3ccc(OC)cc3)s2)cc1 [Compound 58]	10	–	72	inactive
COc1ccc(-c2nc(Nc3ccccc3OC)s[n+]2-c2ccc(OC)cc2)cc1 [Compound 59]	21	–	61	inactive
COc1ccc(-c2nc(Nc3ccc(C)cc3)s[n+]2-c2ccc(OC)cc2)cc1 [Compound 60]	14	–	66	inactive
COc1ccc(-c2nc(Nc3ccccc3C)s[n+]2-c2ccc(OC)cc2)cc1 [Compound 61]	17	–	66	inactive
COc1ccc(-c2nc(Nc3ccc(Cl)cc3)s[n+]2-c2ccc(OC)cc2)cc1 [Compound 62]	13	–	13	inactive
COc1ccc(-c2nc(Nc3ccccc3Cl)s[n+]2-c2ccc(OC)cc2)cc1 [Compound 63]	17	1000	20	–
COc1ccc(-c2nc(Nc3cccnc3)s[n+]2-c2ccc(OC)cc2)cc1 [Compound 64]	12	1200	22	–
COc1ccccc1-[n+]1sc(Nc2ccccc2)nc1-c1ccc(C)cc1 [Compound 65]	–	114	–	–
COc1ccc(Nc2nc(-c3ccc(C)cc3)[n+](-c3ccccc3OC)s2)cc1 [Compound 66]	–	120	–	–
COc1ccccc1-[n+]1sc(Nc2ccc(C)cc2)nc1-c1ccc(C)cc1 [Compound 68]	–	110	–	–
COc1ccccc1-[n+]1sc(Nc2ccccc2C)nc1-c1ccc(C)cc1 [Compound 69]	–	139	–	–
COc1ccccc1-[n+]1sc(Nc2ccccc2Cl)nc1-c1ccc(C)cc1 [Compound 71]	–	234	–	–
COc1ccccc1-[n+]1sc(Nc2cccnc2)nc1-c1ccc(C)cc1 [Compound 72]	–	155	–	–
COc1ccccc1-[n+]1sc(Nc2cccnc2)nc1-c1ccccc1 [Compound 73]	–	725	–	–
COc1ccc(Nc2nc(-c3ccccc3OC)[n+](-c3ccccc3OC)s2)cc1 [Compound 75]	–	103	–	–
COc1ccccc1-c1nc(Nc2ccc(C)cc2)s[n+]1-c1ccccc1OC [Compound 77]	–	4.4	–	–
COc1ccccc1-c1nc(Nc2ccccc2C)s[n+]1-c1ccccc1OC [Compound 78]	–	99	–	–
COc1ccccc1-c1nc(Nc2ccc(Cl)cc2)s[n+]1-c1ccccc1OC [Compound 79]	–	216	–	–
COc1ccccc1-c1nc(Nc2cccnc2)s[n+]1-c1ccccc1OC [Compound 81]	–	672	–	–
